pIC50: −log10 of the molar value.

Chain of 15-PGDH/HPGD (P15428 whole entry): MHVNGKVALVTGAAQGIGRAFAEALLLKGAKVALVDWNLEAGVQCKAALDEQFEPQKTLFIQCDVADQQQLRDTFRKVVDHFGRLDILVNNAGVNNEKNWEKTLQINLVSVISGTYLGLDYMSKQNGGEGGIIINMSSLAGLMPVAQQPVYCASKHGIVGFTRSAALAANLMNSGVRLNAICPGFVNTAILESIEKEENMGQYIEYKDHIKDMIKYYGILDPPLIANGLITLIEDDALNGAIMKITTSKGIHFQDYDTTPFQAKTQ

In this experiment the target is 15-PGDH/HPGD (Homo sapiens (Human), UniProt P15428). Nature of the experiment: hPGDH inhibitor screening biochemical assay. As to conditions: read-out: hPGDH: Average IC50. The method, then:
A hydroxyprostaglandin dehydrogenase inhibition screening biochemical assay can be performed to assess the synthesized inhibitors provided herein. Provided herein is an exemplary biochemical assay for hPGDH inhibitor screening.
The in vitro biochemical assay can be performed in white, 384 plates in total 20 μl reaction volume consisting of 10 nM of 15-PGDH/HPGD (R&D System #5660-DH), 15 μM Prostaglandin E2 (Sigma, Cat #P5640-10MG) and 0.25 mM (3-Nicotinamide adenine dinucleotide sodium salt (Sigma, Cat #N0632-5G) made in reaction buffer (50 mM Tris-HCl, pH 7.5, 0.01% Tween 20) at 10-point dose response curve for test/tool compounds. Briefly, 5 μl (4×) of compounds solution and 5 μl (final concentration, 10 nM) of enzyme solution is added to white 384 well plates and incubated for 10 mins at 37° C. 5 μl (4×) of Prostaglandin E2 and 5 μl (4×) of β-Nicotinamide adenine dinucleotide sodium salt is added to the wells and incubated for 10 mins at room temperature. Fluorescence is recorded at ex/em=340 nm/485 nm. The percentage (%) inhibition of enzyme activity was determined relative to positive control (1% DMSO) and IC50 was calculated using GraphPad prism software (four parameter-variable slope equation).
The term pIC50 denotes −log10 of the IC50, conventionally taken in molar units. As to `CN(C)c1ccc(-n2ccc3cc(C(=O)N4CCCCC4)cnc32)cn1` [MF-DH-366], the pIC50 was above 7.00. Turning to `NS(=O)(=O)c1ccc(-n2ccc3cc(C(=O)N4CCC(F)(F)CC4)cnc32)cc1` [MF-DH-496], the pIC50 was above 7.00. The result for `COc1ccc(-n2cc(Cl)c3cc(C(=O)N4CCCCC4)cnc32)cc1` [MF-DH-239] reads above 7.00; that for `NCc1cccc(-n2ccc3cc(C(=O)N4CCCCC4)cnc32)c1` [MF-DH-303], 6.00 to 7.00. For the compound `O=C(c1cnc2c(ccn2-c2cccc(C(=O)N3CCS(=O)(=O)C3)c2)c1)N1CCC(F)(F)CC1` [MF-DH-497, (4,4-difluoropiperidin-1-yl)(1-(3-(1,1-dioxidothiazolidine-3-carbonyl)phenyl)-1H-pyrrolo[2,3-b]pyridin-5-yl)methanone], the pIC50 was above 7.00. The result for `N#Cc1cccc(-n2ccc3cc(C(=O)N4CCC(F)CC4)cnc32)c1` [MF-DH-344] reads above 7.00; that for `COc1ccc(-n2cnc3cc(C(=O)N4CCCCC4)ccc32)nc1` [MF-PGDH-022], above 7.00.

For `O=C(c1ccc2c(c1)c(Cl)nn2-c1cncc(Cl)c1)N1CCCCC1` [MF-DH-271], the pIC50 is 6.00 to 7.00. The result for `CS(=O)(=O)n1ccc2cc(C(=O)N3CCCCC3)cnc21` [MF-DH-311, (1-(methylsulfonyl)-1H-pyrrolo[2,3-b]pyridin-5-yl)(piperidin-1-yl)methanone] reads at most 6.00; that for `CCOC(=O)CCc1nc2cc(C(=O)N3CCCCC3)ccc2n1-c1cccc(Cl)c1` [MF-PGDH-033, ethyl 3-(1-(3-chlorophenyl)-5-(piperidine-1-carbonyl)-1H-benzo[d]imidazol-2-yl)propanoate], above 7.00. As for `CCNC(=O)c1ccc(-n2ccc3cc(C(=O)N4CCC(F)(F)CC4)cnc32)cc1` [MF-DH-418], the pIC50 is above 7.00. Next, `O=C(c1cnc2c(ccn2-c2cncc(NS(=O)(=O)C3CC3)c2)c1)N1CCC(F)(F)CC1` [MF-DH-484, N-(5-(5-(4,4-difluoropiperidine-1-carbonyl)-1H-pyrrolo[2,3-b]pyridin-1-yl)pyridin-3-yl)cyclopropanesulfonamide]: above 7.00; `C[C@H]1CCCN(C(=O)c2cnc3c(ccn3-c3ccc(C(=O)O)cc3)c2)C1` [MF-DH-562, (S)-4-(5-(3-methylpiperidine-1-carbonyl)-1H-pyrrolo[2,3-b]pyridin-1-yl)benzoic acid]: above 7.00; `CC(C)(O)C#Cc1nc2cc(C(=O)N3CCC(F)(F)CC3)cnc2n1-c1ccc(C#N)cc1` [MF-DH-476, 4-(6-(4,4-difluoropiperidine-1-carbonyl)-2-(3-hydroxy-3-methylbut-1-yn-1-yl)-3H-imidazo[4,5-b]pyridin-3-yl)benzonitrile]: 6.00 to 7.00. As for `O=C(c1ccc2c(c1)ncn2-c1cccc(Cl)c1)N1CC2CCCC2C1` (stereo not drawn) [MF-PGDH-015], the pIC50 was above 7.00. With `O=C(NC1CCNCC1)c1ccc(-n2ccc3cc(C(=O)N4CCC(F)(F)CC4)cnc32)cc1` [MF-DH-419], the pIC50 was above 7.00.

As to `O=C(c1ccc2c(c1)ncn2-c1cccc(Cl)c1)N1CC2CCC(C2)C1` [MF-PGDH-018], the pIC50 is above 7.00. Next, `O=C(O)CCc1nc2cc(C(=O)N3CCCCC3)ccc2n1-c1cccc(Cl)c1` [MF-PGDH-034, 3-(1-(3-chlorophenyl)-5-(piperidine-1-carbonyl)-1H-benzo[d]imidazol-2-yl)propanoic acid]: above 7.00. As to `COc1ccc(-n2ccc3cc(C(=O)N4CCCCC4)cnc32)cn1` [MF-DH-323], the pIC50 was above 7.00.

For the compound `O=C(Nc1cc(C2CC2)[nH]n1)c1cncc(-n2ccc3cc(C(=O)N4CCC(F)(F)CC4)cnc32)c1` [MF-DH-501, N-(5-cyclopropyl-1H-pyrazol-3-yl)-5-(5-(4,4-difluoropiperidine-1-carbonyl)-1H-pyrrolo[2,3-b]pyridin-1-yl)nicotinamide], the pIC50 was above 7.00.

Consider `O=C(c1ccc2c(-c3cccc(Cl)c3)c[nH]c2c1)N1CCCCC1` [MF-PGDH-053, (3-(3-chlorophenyl)-1H-indol-6-yl)(piperidin-1-yl)methanone], for which the pIC50 was above 7.00.

Values taken from US11345702B1 (Myoforte Therapeutics, Inc., priority 2020, dated 2022).
